Results: publication PMC5773577, “Novel Miniature Membrane Active Lipopeptidomimetics against Planktonic and Biofilm Embedded Methicillin-Resistant Staphylococcus aureus” (Scientific Reports, 2018)
Converted amounts (≈) assume the structure as drawn. Like-named read-outs stand apart in the source and are kept apart here. Non-standard residues stand in square brackets, D forms with d. Residues, ends and D or L forms follow the SMILES beside them. No end group written: not given here. d1Nal = N[C@H](Cc1cccc2ccccc12)C(=O)O; 12Ado = NCCCCCCCCCCCC(=O)O; Aoc = NCCCCCCCC(=O)O

Columns and labels:
[1] = test system: mouse red blood cells (RBCs); experiment: Hemolysis assay; assay type: cell-based; settings: mouse RBC, up to 250 μg/mL, 1 h, 37 °C, PBS pH 7.4; 0.1% Triton X-100 = 100%; data not shown
Method: For the experiment, a previously defined procedure was used with slight modifications[67],[68]. Briefly, blood was withdrawn from mice on the day of the experiment. After washing red blood cells (RBC) twice with phosphate buffer saline (PBS: 35 mM sodium phosphate, 150 mM NaCl, pH 7.4), a 4% v/v suspension of RBC was prepared in the same buffer. In a 96-well plate, serial two-fold dilutions of desired concentrations of peptidomimetics (in PBS) were prepared (100 μL) in duplicate. To each well 100 μL of 4% v/v RBC suspension was added. The plates were incubated at 37 °C for 1 h. After 1 h, the plates were centrifuged at 1500 rpm for 10 min and 20 μL of the supernatant was transferred to a fresh 96-well plate containing 80 μL PBS. The hemoglobin release was quantified by measuring OD414 in an ELISA plate reader (Molecular Devices, Sunnyvale, CA, USA). Hemoglobin release from 0.1% Triton X-100 treated RBC was set as 100% lysis (Amax) while as negative control RBC suspended in PBS alone was used (APBS). Percentage hemolysis was calculated using the following equation:1 %hemolysis=[(Asample−APBS)/(Amax−APBS)]×100

S. aureus (ISP479R) = assay type: cell-based, Staphylococcus aureus; settings: MHB, 2–5 × 10^5 CFU/mL, 16–18 h, 37 °C, OD600
Method: (§1) The antibacterial activity was evaluated as MIC using slight modifications to a serial broth micro dilution method as reported previously[66],[67]. Briefly, to each treatment well of the 96-well plate (Corning Incorporated, USA) 10 μL of peptidomimetic/antibiotic was added and subsequently diluted serial 2-fold in 0.2% BSA (in 0.01% acetic acid). Then to each well of the first 11 columns 100 μL of mid-log phase bacterial suspension in MHB medium was added to get 2–5 × 10^5 CFU/mL. Cultures without test peptidomimetics/antibiotics were used as growth control. Uninoculated MHB medium was used as negative control. The microtitre plates were incubated overnight with agitation (180 rpm) at 37 °C. After 16–18 h incubation, absorbance was read at 600 nm using an ELISA plate reader (Molecular Devices, Sunnyvale, CA, USA). The experiments were carried out in duplicate on at least three different days.

[2] = test system: E. faecium (E-7846), clinical isolate of vancomycin-resistant E. faecium; experiment: organism not typed; assay type: cell-based, Enterococcus faecium; settings: VRE clinical isolate E-7846; MHB, 2–5 × 10^5 CFU/mL, 16–18 h, 37 °C
Method: as §1

[3] = test system: Escherichia coli (ATCC 11775); assay type: cell-based
Method: as §1

[4] = test system: Methicillin-resistant S. epidermidis (ATCC 35984); experiment: microbe, parasite or virus in culture; assay type: cell-based, Staphylococcus epidermidis; settings: MRSE ATCC 35984; MHB, 2–5 × 10^5 CFU/mL, 16–18 h, 37 °C, OD600
Method: as §1

MRSA (ATCC 43300) = experiment: microbe, parasite or virus in culture; assay type: cell-based, Staphylococcus aureus; settings: MHB, 2–5 × 10^5 CFU/mL, 16–18 h, 37 °C, OD600
Method: as §1

[5] = test system: 3T3 murine fibroblast cell line; experiment: Cytotoxicity, MTT assay; assay type: cell-based; settings: 3T3 fibroblasts, 2 h, DMEM with 10% FBS, mean ± S.D., triplicate on two days
Method: For the active peptidomimetics cytotoxicity was measured against 3T3 murine fibroblast cell line using a previously defined MTT assay with slight modifications. Briefly, the cells were grown to over 75% confluence in DMEM supplemented with 10% FBS and antibiotics (1 × Anti-anti) at 37 °C in 5% CO2 atmosphere. The cells were transferred to a 24-well plate to a final count of ~8 × 10^4 cells/well. […] The plates were kept for 2 h at 37 °C in 5% CO2 incubator. After 2 h, the cells were washed once with 1 mL PBS. Then 1 mL MTT (0.1 mg/mL) was added to each well in dark and incubated for 2 h at 37 °C in 5% CO2. After 2 h, 200 μL of DMSO was added to the wells to dissolve the formazan crystals formed and the plates were kept for 5 min in the incubator at 37 °C. 100 μL of the suspension was transferred to a fresh 96-well plate and absorbance (Asample) was measured at 570 nm in an ELISA plate reader (Molecular Devices, Sunnyvale, CA, USA). The wells with DMSO treatment were set as untreated control (Auntreated control). The assay was done in triplicate on two different days. The % survival was calculated using the following equation:2 %survival=[Asample/Auntreatedcontrol]×100

S. aureus (ISP479C) = experiment: microbe, parasite or virus in culture; assay type: cell-based, Staphylococcus aureus; settings: MHB, 2–5 × 10^5 CFU/mL, 16–18 h, 37 °C, OD600
Method: as §1

[6] = test system: E. faecium (E-447), clinical isolate of vancomycin-resistant E. faecium; experiment: organism not typed; assay type: cell-based, Enterococcus faecium; settings: VRE clinical isolate E-447; MHB, 2–5 × 10^5 CFU/mL, 16–18 h, 37 °C
Method: as §1

MRSA ATCC 33591 [7] = experiment: microbe, parasite or virus in culture; assay type: cell-based, Staphylococcus aureus
Method: An initial inoculum of mid-log phase 10^7 CFU/mL was used and MIC experiment was performed as described earlier. For serum/plasma stability assay a method as described previously was used with slight modifications. Briefly, 50 μL MHB medium containing desired concentration of test peptidomimetics was incubated with 50 µL mice plasma/fetal bovine serum for 3 h at 37 °C. After incubation, a 10 μL aliquot was taken out for MIC determination as described above. For the experiment, mid-log phase 2–5 × 10^5 CFU/mL were used as initial inoculum. For the growth control wells, an equivalent amount of plasma/FBS in the medium was also added to evaluate their effect on the viability of cells. A slight decrease in OD600 of cells incubated with mice plasma was observed compared to untreated growth control in MHB alone. The experiments were repeated on two different days and reproducible MIC values were observed.

S. aureus (ATCC 29213) = experiment: microbe, parasite or virus in culture; assay type: cell-based, Staphylococcus aureus; settings: MHB, 2–5 × 10^5 CFU/mL, 16–18 h, 37 °C, OD600, duplicate, at least three days
Method: as §1

MRSA (ATCC 33591) = experiment: microbe, parasite or virus in culture; assay type: cell-based, Staphylococcus aureus; settings: MHB, 2–5 × 10^5 CFU/mL, 16–18 h, 37 °C, OD600
Method: as §1

MRSA ATCC 33591 [8] = experiment: Resistance development over 17 serial passages at sub-MIC; assay type: cell-based, Staphylococcus aureus; settings: for MIC: Staphylococcus aureus
Method: For the experiment, a method as described previously was used with slight modifications. Briefly, for the experiment, on day 1 the initial MICs of all test agents were determined using routine MIC experiment protocol as described earlier. Next day, bacterial cells (100 μL) from the wells with concentrations 2–4 fold less than the MIC value for each test agent were used to set up fresh mid-log phase cultures in MHB medium for setting up the MIC plate. This was repeated for a total of 17 sub-lethal treatments with each antimicrobial agent. For every passage, corresponding glycerol stocks (15% v/v) were made for each culture and were kept at −80 °C for future use.

[9] = MRSA ATCC 33591, initial inoculum 10^7 CFU/mL, mid-log phase

Row | Compound | % hemolysis [1] [%] | Minimum inhibitory concentration, MIC (S. aureus (ISP479R)) [µg/mL] | Minimum inhibitory concentration, MIC [2] [µg/mL] | MIC [3] [µg/mL] | Minimum inhibitory concentration, MIC [4] [µg/mL] | Minimum inhibitory concentration, MIC (MRSA (ATCC 43300)) [µg/mL] | % viable cells relative to untreated control (MTT) ([5]; 10× MIC) | % viable cells relative to untreated control (MTT) ([5]; 20 × MIC) | Minimum inhibitory concentration, MIC (S. aureus (ISP479C)) [µg/mL] | further results
1 | N=C(N)NCCC[C@H](NC(=O)[C@@H](N)Cc1c[nH]c2ccccc12)C(=O)N[C@H](Cc1cccc2ccccc12)C(=O)N[C@@H](CCCNC(=N)N)C(=O)N[C@@H](Cc1c[nH]c2ccccc12)C(N)=O [S-3, Trp-Arg-(D-1-Nal)-Arg-Trp-CONH2] (HELM PEPTIDE1{W.R.[O=C([C@@H](Cc1cccc2ccccc12)N[*:1])[*:2]].R.W.[am]}$$$$V2.0) | < 5 |  |  |  |  |  |  |  |  | 
2 | N=C(N)NCCC[C@H](NC(=O)[C@@H](Cc1cccc2ccccc12)NC(=O)CCCCCCCCCCCNC(=O)[C@@H](Cc1cccc2ccccc12)NC(=O)[C@@H](N)CCCNC(=N)N)C(N)=O [S-8, Arg-(D-1-Nal)-(12-ADO)-(D-1-Nal)-Arg-CONH2] (H-R[d1Nal][12Ado][d1Nal]R-NH2) |  | 0.7 (≈ 0.76 µM) | 5.6 (≈ 6.08 µM) | 5.6 (≈ 6.08 µM) | 1.4 (≈ 1.52 µM) | 1.4 (≈ 1.52 µM) | 84.8 ± 5.6% | 81.1 ± 2.9% |  | 
3 | N=C(N)NCCC[C@H](NC(=O)[C@@H](Cc1cccc2ccccc12)NC(=O)CCCCCCCNC(=O)[C@@H](Cc1cccc2ccccc12)NC(=O)[C@@H](N)CCCNC(=N)N)C(N)=O [S-9, Arg-(D-1-Nal)-(8-AOA)-(D-1-Nal)-Arg-CONH2] (H-R[d1Nal][Aoc][d1Nal]R-NH2) | < 5 | 45.4 (≈ 52.5 µM) |  |  | 45.4 (≈ 52.5 µM) | >45.4 |  |  | 45.4 (≈ 52.5 µM) | 
4 | WRWRW-NH2 [S-1, Trp-Arg-Trp-Arg-Trp-CONH2] | < 5 |  |  |  |  |  |  |  |  | 
5 | N=C(N)NCCC[C@H](NC(=O)[C@H](Cc1c[nH]c2ccccc12)NC(=O)CCCCCCCCCCCNC(=O)[C@H](Cc1c[nH]c2ccccc12)NC(=O)[C@@H](N)CCCNC(=N)N)C(N)=O [S-7, Arg-Trp-(12-ADO)-Trp-Arg-CONH2] (HELM PEPTIDE1{R.W.[O=C(CCCCCCCCCCCN[*:1])[*:2]].W.R.[am]}$$$$V2.0) |  | 11.3 (≈ 12.6 µM) | 5.6 (≈ 6.23 µM) | > 45.4 | 11.3 (≈ 12.6 µM) | 11.3 (≈ 12.6 µM) | no decrease in cell viability | no decrease in cell viability | 11.3 (≈ 12.6 µM) | Minimum inhibitory concentration, MIC [6]: 11.3 µg/mL (≈ 12.6 µM); Minimum inhibitory concentration, MIC (MRSA ATCC 33591 [7]; ATCC 33591, 3 h): 22.7 µg/mL (≈ 25.2 µM); Minimum inhibitory concentration, MIC (MRSA ATCC 33591 [7]; MRSA ATCC 33591, after 3 h pre-incubation at 37 °C with mice plasma (50%, v/v), inoculum 2–5 × 10^5 CFU/mL, repeated on two days): >45.4 µg/mL; Minimum inhibitory concentration, MIC (MRSA ATCC 33591 [7]; [9]): 11.3 µg/mL (≈ 12.6 µM); Minimum inhibitory concentration, MIC (S. aureus (ATCC 29213)): 11.3 µg/mL (≈ 12.6 µM); Minimum inhibitory concentration, MIC (MRSA (ATCC 33591)): 11.3 µg/mL (≈ 12.6 µM)
6 | O=C(O)c1cn(C2CC2)c2cc(N3CCNCC3)c(F)cc2c1=O [CIP, Ciprofloxacin] |  |  |  |  |  |  |  |  |  | MIC (MRSA ATCC 33591 [8]; read-out: final MIC): 11.3 µg/mL (≈ 34.1 µM); MIC (MRSA ATCC 33591 [8]; read-out: initial MIC): 0.17 µg/mL (≈ 0.513 µM); fold increase in MIC (MRSA ATCC 33591 [8]; at 6th passage): ~16 fold; fold increase in MIC (MRSA ATCC 33591 [8]; over 17 passages (final MIC / initial MIC)): 66.8 fold
7 | N=C(N)NCCC[C@H](NC(=O)[C@@H](N)Cc1c[nH]c2ccccc12)C(=O)N[C@H](Cc1ccccc1C(F)(F)F)C(=O)N[C@@H](CCCNC(=N)N)C(=O)N[C@@H](Cc1c[nH]c2ccccc12)C(N)=O [S-2, Trp-Arg-(2-trifluoromethyl-D-Phe)-Arg-Trp-CONH2] (HELM PEPTIDE1{W.R.[O=C([C@@H](Cc1ccccc1C(F)(F)F)N[*:1])[*:2]].R.W.[am]}$$$$V2.0) | < 5 |  |  |  |  |  |  |  |  | 
8 | N=C(N)NCCC[C@H](NC(=O)CCCCCCCNC(=O)[C@H](CCCNC(=N)N)NC(=O)[C@@H](N)Cc1c[nH]c2ccccc12)C(=O)N[C@@H](Cc1c[nH]c2ccccc12)C(N)=O [S-5, Trp-Arg-(8-AOA)-Arg-Trp-CONH2] (HELM PEPTIDE1{W.R.[O=C(CCCCCCCN[*:1])[*:2]].R.W.[am]}$$$$V2.0) | < 5 |  |  |  |  |  |  |  |  | 
9 | N=C(N)NCCC[C@H](NC(=O)CCCCCCCCCCCNC(=O)[C@H](CCCNC(=N)N)NC(=O)[C@@H](N)Cc1c[nH]c2ccccc12)C(=O)N[C@@H](Cc1c[nH]c2ccccc12)C(N)=O [S-6, Trp-Arg-(12-ADO)-Arg-Trp-CONH2] (HELM PEPTIDE1{W.R.[O=C(CCCCCCCCCCCN[*:1])[*:2]].R.W.[am]}$$$$V2.0) |  | 11.3 (≈ 12.6 µM) | 11.3 (≈ 12.6 µM) | > 45.4 | 11.3 (≈ 12.6 µM) | 11.3 (≈ 12.6 µM) | no decrease in cell viability | no decrease in cell viability | 11.3 (≈ 12.6 µM) | Minimum inhibitory concentration, MIC [6]: 11.3 µg/mL (≈ 12.6 µM); Minimum inhibitory concentration, MIC (MRSA ATCC 33591 [7]; ATCC 33591, 3 h): 22.7 µg/mL (≈ 25.2 µM); Minimum inhibitory concentration, MIC (MRSA ATCC 33591 [7]; [9]): 11.3 µg/mL (≈ 12.6 µM); Minimum inhibitory concentration, MIC (S. aureus (ATCC 29213)): 11.3 µg/mL (≈ 12.6 µM); Minimum inhibitory concentration, MIC (MRSA (ATCC 33591)): 11.3 µg/mL (≈ 12.6 µM)
